Laboratory results from PubChem BioAssay (NCI).
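Five concentrations, 48 hours, 96-well plates. TGI is the concentration that stops growth completely.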

Legend:
Assay in all cases: NCI anticancer screen, dose series, 48 h
CCRF-CEM leukemia = system: CCRF-CEM leukemia
HCC-2998 colon = system: HCC-2998 colon
HCT-15 colon = system: HCT-15 colon
HT29 colon = system: HT29 colon
NCI-H226 lung = system: NCI-H226 lung
NCI-H460 lung = system: NCI-H460 lung
SNB-19 CNS = system: SNB-19 CNS
SR leukemia = system: SR leukemia
TK-10 renal = system: TK-10 renal
UO-31 renal = system: UO-31 renal
DU-145 prostate = system: DU-145 prostate
MCF7 breast = system: MCF7 breast
HS 578T breast = system: HS 578T breast

Row | Structure (SMILES) | TGI (CCRF-CEM leukemia) | TGI (HCC-2998 colon) | TGI (HCT-15 colon) | TGI (HT29 colon) | TGI (NCI-H226 lung) | TGI (NCI-H460 lung) | TGI (SNB-19 CNS) | TGI (SR leukemia) | TGI (TK-10 renal) | TGI (UO-31 renal) | TGI (DU-145 prostate) | TGI (MCF7 breast) | TGI (HS 578T breast)
1 | CCOC(=O)Cn1c2ccccc2c(=O)c2cc(C)c(C)c(C#N)c21 | > 100 µM | > 100 µM | > 100 µM | > 100 µM | > 100 µM | > 100 µM | > 100 µM | > 100 µM | > 100 µM | > 100 µM |  |  | 
2 | CC(CCC[C@H](C)CO)[C@H]1[C@@H](O)C(O)C2[C@@H]3C[C@@H](O)C4(O)C[C@@H](O)CC[C@]4(C)C3CC[C@@]21C (stereo partly drawn) | > 100 µM | > 100 µM | > 100 µM | > 100 µM | > 100 µM | > 100 µM | > 100 µM | > 100 µM | > 100 µM | > 100 µM |  |  | 
3 | Clc1cccc(-c2sc(-c3ccsc3)cc2Cc2ccsc2)c1 | > 10 µM | > 10 µM | > 10 µM | > 10 µM |  |  |  | > 10 µM | > 10 µM |  | > 10 µM | > 10 µM | 
4 | CC(=O)Oc1cc(S(=O)(=O)Nc2n[nH]c(Nc3ccc(C)cc3)n2)c(S)cc1Cl | > 100 µM |  | > 100 µM | > 100 µM |  | > 100 µM | > 100 µM | > 100 µM | > 100 µM | > 100 µM | > 100 µM |  | > 100 µM
5 | CC(=O)OCC1OC(n2ccc(=O)[nH]c2=O)C(OC(C)=O)C(OC(C)=O)C1OC(C)=O (stereo not drawn) | > 100 µM | > 100 µM | > 100 µM | > 100 µM | > 100 µM | > 100 µM | > 100 µM | > 100 µM | > 100 µM | > 100 µM |  |  | 
6 | CCOP(=O)(OCC)/C(C#N)=C/c1cccn1C(C)C |  | > 100 µM | > 100 µM | > 100 µM | > 100 µM | > 100 µM | > 100 µM | > 100 µM | > 100 µM | > 100 µM | > 100 µM |  | 
7 | COc1cc(C2C3=C(COC3=O)Oc3cc4c(cc32)OCO4)ccc1O (stereo not drawn) | > 100 µM | 6.34 µM | > 100 µM | 37.9 µM | > 100 µM | > 100 µM | > 100 µM |  | > 100 µM |  | > 100 µM | > 100 µM | 
